Test results from PubChem BioAssay AID1963847 (Molecular Pharmacology Branch, DTP, NCI, 2024).

Tested on: 415267-285-R-J2-PDC complex spheroid viability
Experiment: Anticancer human tumor 415267-285-R-J2-PDC patient-derived breast carcinoma cell line growth inhibition [POLQ]
Conditions: for IC50: curve of first compound; for viability, T/C: stronger effect = lower value; active = viability on the fitted dose curve at most 10% of control; inactive = the rest
Protocol: Multicellular complex tumor spheroid response to Polymerase (POL) inhibitors (novobiocin, ART-558, RP6685) in combination with a variety of drugs and investigational agents in selected tumor cell lines
The POL inhibitors (novobiocin, ART-558, and RP6685) were evaluated both individually and in combination with standard of care and investigational anticancer small molecules within a complex spheroid model of solid tumors. . Complex spheroids include a stromal component modeled by human endothelial cells (HUVEC) and fibroblasts modeled by human mesenchymal stem cells (MSCs). The concentration ranges selected for each drug and investigational agent were based upon clinically achievable concentrations if the clinical Cmax of the agent was known.
Compounds. The drugs and investigational agents: novobiocin (NSC847541), ART-558 (NSC835418), RP-6685 (NSC848927), peposertib (NSC802822), ceralasertib (NSC780249), elimusertib (NSC800525), camonsertib (NSC841442), AZD-1390 (NSC803789), olaparib (NSC753686), talazoparib (NSC767125), rucaparib (NSC756644), sotorasib (NSC818433), MRTX-1133 (NSC836407), SN-38 (NSC673596), topotecan (NSC609699), epotoside (NSC141540), doxorubicin (NSC123127), gemcitabine (NSC613327), 5-fluorouracil (NSC19893), paclitaxel (NSC125973), vemurafenib (NSC761431), MSA-2 (NSC828583), SN-011 (NSC837082), adavosertib (NSC754352), prexasertib (NSC758257), carboplatin (NSC241240) and oxaliplatin (NSC266046), were obtained from the National Cancer Institute (NCI) Developmental Therapeutics Program Chemical Repository (21). The FDA-approved anticancer drug set is available from the Developmental Therapeutics Program at https://dtp.cancer.gov/organization/dscb/obtaining/. […] The stock solutions were prepared in dimethyl sulfoxide (DMSO, Sigma-Aldrich, St. Louis, MO, cat. D2650), except for the platinum compounds which were prepared in saline (Quality Biological, Gaithersburg, MD, cat. 114-055-101), at 800-fold the tested concentration and stored at -70 degrees C prior to their use. All drugs and investigational agents were tested over a range starting from a high concentration at or near the clinical Cmax and decreasing in half-log increments. If the clinical Cmax for an agent had not been determined, the highest concentration tested was 10 microM, except for SN-38, which was tested at a high concentration of 1 microM.
Cell Culture. All cells were maintained in an incubator at 37 degrees C and 5% CO2 with 95% humidity. The PDC lines were cultured according to standard operating procedures established by the NCI PDMR (https://pdmr.cancer.gov). Table 3 of the manuscript, lists the cell lines along with the number of the three cell types plated to form the mct-spheroids and media for tumor cell growth. After thawing, all PDC lines, except 997537-175-T-J1-PDC and 415267-285-R-J2-PDC, were cultured in Matrigel-coated flasks prepared with a working solution of 1X Ham's F-12 nutrient mix, without supplementation (Thermo Fisher Scientific, cat. 11765054), 100 U/mL penicillin-streptomycin (Thermo Fisher Scientific, cat. 15140122), and 2.5% Matrigel (Corning Inc., Corning, NY, cat. 354248) for the first three passages. The two PDC lines 997537-175-T-J1-PDC and 415267-285-R-J2-PDC were cultured on uncoated flasks. The 857933-349-R-J2-PDC line was cultured in 6C/Colon 1B media containing advanced DMEM/F-12 (Thermo Fisher Scientific, cat. 12634028), 10 mM HEPES (Thermo Fisher Scientific, cat. 15630080), 1X GlutaMAX supplement (Thermo Fisher Scientific, cat. 35050061), 0.1 mg/mL primocin (InvivoGen, San Diego, CA, cat. ant-pm-2), 10% defined fetal bovine serum, heat inactivated (HyClone Laboratories Inc., Logan, UT, cat. SH30070.03HI), 50% L-WRN conditioned media (ATCC, cat. CRL-3276), 1.25 mM N-Acetyl-L-cysteine (Sigma-Aldrich, cat. A9165), 10 mM nicotinamide (Sigma-Aldrich, cat. N0636), 1X B-27 supplement (Thermo Fisher Scientific, cat. 17504044), 1X N-2 supplement (Thermo Fisher Scientific, cat. […]
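Note: spheroids exposed to compounds for one week before readout.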
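Throughout, for viability, T/C: luminescence used as stand-in measure of viable cells.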

COc1cc(C2c3cc4c(cc3C(OC3OC5COC(C)OC5C(O)C3O)C3COC(=O)C23)OCO4)cc(OC)c1O (configuration not stated) + COC1C(OC(N)=O)C(O)C(Oc2ccc3c(O)c(NC(=O)c4ccc(O)c(CC=C(C)C)c4)c(=O)oc3c2C)OC1(C)C
inactive: viability, T/C (second compound 0.0316 µM, first compound 0.0316 µM) 88.3% | viability, T/C (second compound 0.0316 µM, first compound 0.1 µM) 72.4% | viability, T/C (second compound 0.0316 µM, first compound 0.316 µM) 13.8% | viability, T/C (second compound 0.1 µM, first compound 0.0316 µM) 97.4% | viability, T/C (second compound 0.1 µM, first compound 0.1 µM) 72.1% | viability, T/C (second compound 0.1 µM, first compound 0.316 µM) 14.5% | viability, T/C (second compound 0.316 µM, first compound 0.0316 µM) 97.7% | viability, T/C (second compound 0.316 µM, first compound 0.1 µM) 69.6% | viability, T/C (second compound 0.316 µM, first compound 0.316 µM) 12.8% | viability, T/C (second compound 1 µM, first compound 0.0316 µM) 98.3% | viability, T/C (second compound 1 µM, first compound 0.1 µM) 71.6% | viability, T/C (second compound 1 µM, first compound 0.316 µM) 13.1% | viability, T/C (second compound 3.16 µM, first compound 0.0316 µM) 87.1% | viability, T/C (second compound 3.16 µM, first compound 0.1 µM) 75.9% | viability, T/C (second compound 3.16 µM, first compound 0.316 µM) 17% | viability, T/C (second compound 10 µM, first compound 0.0316 µM) 101% | viability, T/C (second compound 10 µM, first compound 0.1 µM) 75.6% | viability, T/C (second compound 10 µM, first compound 0.316 µM) 15.3%
155 nM: IC50 (second compound 0.0316 µM)
149 nM: IC50 (second compound 0.316 µM)
163 nM: IC50 (second compound 10 µM)
153 nM: IC50 (second compound 1 µM)
166 nM: IC50 (second compound 3.16 µM)
156 nM: IC50 (second compound 0.1 µM)
active: viability, T/C (second compound 0.0316 µM, first compound 1 µM) 8.42% | viability, T/C (second compound 0.0316 µM, first compound 3.16 µM) 5.21% | viability, T/C (second compound 0.0316 µM, first compound 10 µM) 6.94% | viability, T/C (second compound 0.1 µM, first compound 1 µM) 8.54% | viability, T/C (second compound 0.1 µM, first compound 3.16 µM) 5.95% | viability, T/C (second compound 0.1 µM, first compound 10 µM) 5.76% | viability, T/C (second compound 0.316 µM, first compound 1 µM) 8.42% | viability, T/C (second compound 0.316 µM, first compound 3.16 µM) 5.87% | viability, T/C (second compound 0.316 µM, first compound 10 µM) 6.37% | viability, T/C (second compound 1 µM, first compound 1 µM) 7.07% | viability, T/C (second compound 1 µM, first compound 3.16 µM) 6.69% | viability, T/C (second compound 1 µM, first compound 10 µM) 5.99% | viability, T/C (second compound 3.16 µM, first compound 1 µM) 8.05% | viability, T/C (second compound 3.16 µM, first compound 3.16 µM) 5.46% | viability, T/C (second compound 3.16 µM, first compound 10 µM) 6.77% | viability, T/C (second compound 10 µM, first compound 1 µM) 8.14% | viability, T/C (second compound 10 µM, first compound 3.16 µM) 6.45% | viability, T/C (second compound 10 µM, first compound 10 µM) 5.77%
